The results in this text go back to a melting point compilation (Tetko et al.; mined from patent text by program, amines drawn as free bases though some values may be those of a salt).

A value given as a limit tells only on which side of the number the result lay.

Take `Cc1ccccc1C(Oc1cc(OCc2ccc3ncoc3c2)ccc1C#N)C(=O)O` (racemic): the melting point (in general, the temperature, or range, at which the solid turns liquid) was in the range of 172 to 178 °C.

With `O=S(=O)(c1cccs1)N(CCO)c1cccc2cc(-c3nccs3)[nH]c12`, the melting point was in the range of 170 to 171 °C.

In the case of `CC1(CF)C(=O)N(c2ccc(C#N)c(C(F)(F)F)c2)C(=O)N1CC#N` (stereo not given), the melting point was 175 °C.

Turning to `COc1ccc(-c2c(C(=O)N3CCOCC3)ccc3cc(Cl)ccc23)cc1OC`, the melting point was in the range of 157 to 159 °C.

The compound `CC(C)(C)OC(=O)N[C@H](Cc1c[nH]c2ccccc12)C(N)=O` gave a melting point of 142 to 143 °C.

In turn, `COc1ccc(-c2oc3cc(OC)cc(O)c3c(=O)c2OC)cc1` had a melting point of 143 to 145 °C.

The compound `COC(=O)c1ccc(OC)nc1OC` had a melting point of 52 to 54 °C.

The compound `COc1ccc(Sc2c(C(=O)O)[nH]c3cc(C)ccc23)cc1` showed a melting point of 190 to 192 °C.

In the case of `CCc1nc2c(cnn2CC)c(NC2CCOCC2)c1CNC(=O)c1cccc(C(=O)NCc2cc(Cl)cc(-c3cccc(CN4CCNC(C)C4)c3)c2)c1` (stereo not given), the melting point was in the range of 119 to 121 °C.

`COC1N=C(c2ccccc2)c2cc(Cl)ccc2-n2nc(C(N)=O)nc21` (stereo not given) registered a melting point of 264 to 267 °C.

`CCOC(=O)c1csc(-c2cccc([N+](=O)[O-])c2)n1` returned a melting point of 142 to 145 °C.

`CC(=O)COc1ccc(N2N=C3c4cc(F)ccc4CCC3CC2=O)cc1` (stereo not given) came in with a melting point of 195 to 196 °C.

`COc1cc2ncc(C#N)c(Nc3ccc(F)c(Cl)c3)c2cc1NC(=O)C=CCN(C)OC` had a melting point of 210 to 217 °C.

Compound `CC(=O)c1cccc(Oc2ncccc2C(=O)NCc2ccc(C(C)(C)O)cc2F)c1` showed a melting point of 68 to 70 °C.

In turn, `Cc1ccc(-c2noc(CC(F)=C(F)F)n2)cc1` returned a melting point of 46 to 50 °C.

In the case of `c1ccc2c(c1)C[C@H]1CSC(=Nc3cccc4ncccc34)N1C2`, the melting point turned out to be 194 °C.

Consider `CN(C)S(=O)(=O)n1cc(C(=O)c2c(Cl)cc(Cl)cc2Cl)nc1C#N`, for which the melting point was in the range of 142 to 150 °C.

Turning to `O=S(=O)(O)CCCN1CCCc2ccccc21`, the melting point was in the range of 233 to 237 °C.

For `CCCCCCOc1cccc(C[C@H](NC(=O)c2coc(NS(C)(=O)=O)n2)[C@H](O)CNCc2cccc(CC)c2)c1`, the melting point lay within 85 to 90 °C.

The compound `COc1cccc(OC)c1CC(=O)N1C[C@@H]2C(=O)CCC(c3ccccc3)(c3ccccc3)[C@@H]2C1` (racemic) displayed a melting point of 224 °C.

`CCOC(=O)c1cn(Cc2ccccc2)nc1OCc1ccc(OCc2nc(-c3ccccc3)oc2C)cc1` came in with a melting point of 99 to 100 °C.

Take `CCOC(=O)c1ncn(C2OC(COC(=O)c3ccccc3)C(OC(=O)c3ccccc3)C2OC(=O)c2ccccc2)c1C(=O)OCC` (stereo not given): the melting point was in the range of 134 to 136 °C.

`CC(=O)Oc1ccc(-c2ccc(O)cc2)cc1` came in with a melting point of 204 to 207 °C.

In turn, `CCOC(=O)C(=O)Nc1cccc(N(C)C)c1C(N)=O` returned a melting point of 133 to 135 °C.

Compound `CC(C)CNC(=O)Nc1c(C(=O)c2ccccc2)[nH]c2cc(Cl)ccc12` had a melting point of 235 to 238 °C.

`O=C(c1cc(Br)ccc1[N+](=O)[O-])C(Br)C(Br)c1ccc(Br)cc1` (stereo not given) came in with a melting point of 200 to 201 °C.

`CC1(C)Cc2nsc(=Nc3c(F)cc(Cl)c4nc(Cl)sc34)n2C1` registered a melting point of 134 to 136 °C.

For the compound `CNC(=S)N(C)Cc1ccc(Br)nc1`, the melting point lay in the range of 107 to 108 °C.

The compound `COc1ccc(CNn2nnc3c(Cl)ncnc32)cc1` came in with a melting point of 110 to 112 °C.

`COC(=O)/C=C/C(=O)/C=C/c1ccc(OC)cc1` returned a melting point of 54 to 55 °C.

Regarding `COc1ccc(CN2C(=O)[C@H](NC(=O)OC(C)(C)C)[C@@H]2/C=C/C(N)=O)c(OC)c1`, the melting point is 270 °C.

Take `CC(C)(C)c1ccc(C(=O)Nc2ccc(OCCO)cc2)cc1`: the melting point lay within 136 to 142 °C.

In the case of `Cc1nc(Cl)sc1C=O`, the melting point was 77 to 78 °C.

Compound `N#CCc1cccc(CO)c1[N+](=O)[O-]` had a melting point of 60 to 62 °C.

`O=C1N(Cc2ccc(Br)cn2)c2ccccc2C12COc1cc3c(cc12)OCCO3` (stereo not given) displayed a melting point of 201 to 202 °C.

For `CC(C)=CCN1Cc2cc(Cl)cc3[nH]c(=S)n(c23)C[C@@H]1C`, the melting point amounted to 186 °C.

On to `COc1cc2c(cc1Nc1ncc(Cl)c(N[C@H]3[C@@H](C(N)=O)[C@@H]4C=C[C@H]3C4)n1)CCN(CC(=O)N1CCOCC1)CC2`, for which the melting point amounted to 163 °C.

`CN(C)C(=O)/C=C/CSc1nc(N)cc(Cl)n1` yielded a melting point of 173 to 176 °C.

Compound `CCC=Nc1cc(CO)cc(Nc2c3ccccc3nc3ccccc23)c1` had a melting point of 262 to 263 °C.

On to `CN(Cc1ccc(NC(=O)/C=C/c2ccc(-c3ccc(C(C)(C)C)cc3)s2)cc1)C1CCOCC1`, for which the melting point fell in the range of 216 to 220 °C.

As to `CSc1cc(OCCC[Si](C)(C)C)c(Cl)cc1[N+](=O)[O-]`, the melting point lay in the range of 51 to 53 °C.

Regarding `Cc1c(N(C)C)ccc(Br)c1N=C1NCCN1`, the melting point lay in the range of 157 to 158 °C.

`CCOC(=O)c1c(OCC)ccn1C(=O)n1cccc1C(=O)O` had a melting point of 58 to 60 °C.

With `CCCCCCCCCCCCCCCCCC(=O)c1c[nH]c2cc(C(=O)O)ccc12`, the melting point lay in the range of 268 to 270 °C.

Compound `CC(C)(O)Cn1cnc2c(N)nc3cc(CCS(C)(=O)=O)ccc3c21` had a melting point of 269 to 271 °C.

For `N#Cc1snc(Cl)c1Cl`, the melting point fell in the range of 84.5 to 85 °C.

In turn, `CCCCC(=O)Nc1cccc(NC(=O)C=C(C)OC)c1` gave a melting point of 115 °C.

In turn, `CN(C1CCS(=O)(=O)CC1)S(=O)(=O)c1ccc(Nc2ccnc(Nc3ccc(F)cc3)n2)cc1` showed a melting point of 252 °C.

`COC(=O)N1CC=C(c2ccc(N3C[C@H](CNC(C)=O)OC3=O)cc2)CC1` displayed a melting point of 142 to 145 °C.

On to `N#Cc1c(N2CCc3ccccc3CC2)nc(N)[nH]c1=O`, for which the melting point was > 200 °C.

`Clc1cnc(N2CCNCC2)cn1` came in with a melting point of 98 to 102 °C.

The compound `Cc1cccn2c(=O)cc(/C=C/c3ccccc3)nc12` showed a melting point of 150 to 152 °C.

As for `CCCCc1nc(C(C)(C)O)c(C#N)[nH]1`, the melting point was in the range of 171 to 172 °C.

`O=c1oc(OCc2ccccc2)c(Cl)c2ccccc12` registered a melting point of 92 °C.

Regarding `O=C1c2ccccc2-c2ncccc21`, the melting point was in the range of 132 to 136 °C.

`COc1ccc(Nc2nc(-c3cccc(C(=O)Nc4ccc(C(=O)OCc5ccccc5)cc4)c3)cn3ccnc23)cc1OC` yielded a melting point of 154 to 160 °C.

For the compound `O=C(c1cc(Cl)nc(Cl)c1)n1ccnc1`, the melting point lay within 148 to 151 °C.

The compound `Cc1c(C)c2c(c(C)c1NC(=O)c1ccccc1)C(c1ccc(C(C)C)cc1)C(C)(C)O2` (stereo not given) came in with a melting point of 218 to 220 °C.

For `O=C1CCCN1[C@@H]1c2cc(C(F)(F)F)ccc2OC(CF)(CF)[C@H]1O` (relative stereo), the melting point was 186 to 187 °C.

The compound `Nc1ccc(C(=O)c2ccncc2)cc1N` showed a melting point of 210 to 214 °C.

Turning to `CCN1C(=O)C(C(=O)Nc2cccc(C(=O)Nc3ccccc3)c2)c2cc(C(=O)c3ccccc3)ccc21` (stereo not given), the melting point was 129 to 135 °C.

For `COCn1c(-c2nc3c(OC)ccc(N4CCOCC4)c3s2)nc2ccc(N3CCOCC3)nc21`, the melting point lay within 126 to 128 °C.

With `Cc1ccc(CC(CS)C(=O)Nc2cccc(C(=O)O)c2)cc1` (stereo not given), the melting point lay in the range of 188 to 190 °C.

Turning to `CC(C)c1c(C(=O)Nc2ccccc2)c(-c2ccc(F)cc2)cn1-c1ccccc1`, the melting point lay within 192 to 194 °C.

As for `CCCCOC(=O)CNC(=O)c1ccc2cc(C(=O)OC)[nH]c2c1`, the melting point was 181 to 184 °C.

`O=C(c1ccccc1)c1cc([N+](=O)[O-])ccc1NC1CCCCC1` registered a melting point of 75 °C.

`CC1(C)C(=O)Oc2ccc3cc(C#N)c(Cn4cncn4)cc3c21`: the melting point was found to be 198 °C.

Compound `COc1ccc2[nH]c(C(C)=NO)cc2c1` came in with a melting point of 148 to 150 °C.

Compound `CCOC(=O)CCc1cc(S(C)(=O)=O)cc(-c2nc(=O)c3ccc(Cl)cc3s2)n1` displayed a melting point of 240 °C.

`COc1c(Br)ccc2s[nH]c(=O)c12` returned a melting point of 197 to 198 °C.

`COC(=O)C1(O)CCCC(=O)C1N=Nc1ccccc1` (stereo not given) yielded a melting point of 144 °C.

Compound `COCCOc1ccc(C=NOC)cc1O` yielded a melting point of 63 to 64 °C.

`CCCCCCCCCN1C(=O)N(c2ccc([N+](=O)[O-])c(C(F)(F)F)c2)C(=O)C1(C)C` came in with a melting point of 63 °C.

`COC1CCN(CC=CC(=O)Nc2cc3c(Nc4ccc(F)c(Cl)c4)ncnc3cc2OCC2CC2)CC1`: the melting point lay within 129 to 130 °C.

`N#Cc1c(NCc2ccccc2)n[nH]c1N` showed a melting point of 150 to 152 °C.

With `CNC(=C[N+](=O)[O-])NCCCSc1nc(C)co1`, the melting point lay in the range of 92 to 93 °C.

With `O=C1CCCN1CCCN=c1sc2ccc(Cl)cc2s1`, the melting point is 97 to 97.5 °C.

`O=C(O)CCCCCCCCCCCCCCCCCCC(=O)n1nnc2ccccc21` came in with a melting point of 112 °C.

As for `O=[N+]([O-])c1cc(Br)cc(Br)c1`, the melting point was in the range of 102 to 104 °C.

The compound `COc1ccc2c(c1)C(=NO)CCCO2` displayed a melting point of 103 to 104 °C.

Compound `Cn1c(-c2nnc(N)s2)cnc1[N+](=O)[O-]` gave a melting point of 263 to 265 °C.

With `Cc1ccc(C)c2c1OC(=O)C2c1ccc(C(C)C)cc1` (stereo not given), the melting point lay in the range of 107 to 109 °C.

`COc1ccc(-c2cc(=Nc3c(C)cc(C)cc3C)n(C)c(N3CCN(C(=O)c4ccc(F)cc4)CC3)n2)cc1OC` came in with a melting point of 117 to 121 °C.

With `O=C(O)C1=C(SCc2ccccc2)CCC1`, the melting point is 233 °C.

For `CN(C)c1nc2[nH]c3c(c(=O)n2n1)SCCC3`, the melting point stood at 130 °C.

The compound `O=[N+]([O-])c1ccc(OCC(F)(F)F)c(OCC(F)(F)F)c1` returned a melting point of 63 to 65 °C.

For the compound `O=C(Nc1cccc(-c2nnn[nH]2)c1)C(=O)N1CCC(Cc2ccc(F)cc2)CC1`, the melting point fell in the range of 107 to 112 °C.

`CC(C(=O)O)c1ccc2c(c1)Cc1ccccc1-2` (stereo not given) returned a melting point of 180 to 182 °C.

In the case of `CSc1nc(NC2CC2)nc(Cl)c1C#N`, the melting point fell in the range of 139 to 141 °C.

`O=C(Nc1cccc(C(F)(F)F)c1)c1cccc2cc(O)ccc12` came in with a melting point of 201 to 202 °C.
